Data as given in US10131660B2, “Tetrahydro-azepinoquinolines as agonists of the 5-HT2C receptor” (Sunnylife Pharma, Inc., priority 2014, dated 2018).

target: T1, human 5-HT2C receptor (Homo sapiens, UniProt P28335); experiment: Functional calcium mobilization (FLIPR) assay, 5-HT2C; assay type: cell-based; settings: CHO cells stably expressing human 5-HT2C receptor; agonist-stimulated Ca2+ flux
T1 construct: host or cells: CHO cells, stably expressing
T1 sequence (P28335 33-458): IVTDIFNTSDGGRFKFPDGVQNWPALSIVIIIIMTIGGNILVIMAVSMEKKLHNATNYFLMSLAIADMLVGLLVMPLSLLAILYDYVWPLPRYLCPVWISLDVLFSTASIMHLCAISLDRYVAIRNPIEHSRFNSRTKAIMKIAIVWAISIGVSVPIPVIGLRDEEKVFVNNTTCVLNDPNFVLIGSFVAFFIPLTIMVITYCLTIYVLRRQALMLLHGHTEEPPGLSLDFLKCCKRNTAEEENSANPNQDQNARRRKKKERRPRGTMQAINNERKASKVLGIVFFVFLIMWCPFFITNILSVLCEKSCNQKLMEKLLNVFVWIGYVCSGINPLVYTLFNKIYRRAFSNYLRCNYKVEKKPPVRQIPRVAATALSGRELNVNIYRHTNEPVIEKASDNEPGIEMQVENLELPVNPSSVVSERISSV
Description: (a) Cell Culture for the Human 5-HT2A, Human 5-HT2B, and Human 5-HT2C Receptors:
CHO cells stably expressing the human 5-HT2A, human 5-HT2B, and human 5-HT2C receptors were purchased from PerkinElmer (Waltham, Mass.). Cells were grown in advance DMEM/F12, 1% dialyzed fetal bovine serum, 2 mM L-glutamine, 100 units/mL penicillin, 1 mg/mL streptomycin, and 0.4 mg/ml Geneticin at 37° C. in 5% CO2 atmosphere.
(b) Calcium Mobilization Assays:
Cells were seeded in black clear-bottom 384-well plates at a density of 10,000 cells/well and incubated overnight at 37° C. in 5% CO2/95% atmosphere. After removing medium, cells were loaded with modified HBSS buffer (137.9 mM NaCl, 5.3 mM KCl, 5.5 mM glucose, 20 mM Hepes, 0.49 mM MgCl2, 1.26 mM CaCl2, 0.41 mM MgSO4, 0.33 mM Na2HPO4, and 0.44 mM KH2PO4) containing the FLIPR Calcium 4 dye (Molecular Devices, CA) and probenecid ([…]) and incubated at 37° C. for 60 min, according to the manufacturer's instructions. Compounds were diluted in HBSS buffer containing 6% DMSO as six folds. Final DMSO concentration in the assay was 1%. The dose-response of agonist-stimulated Ca^2+ flux was measured on a Fluorometric Imaging Plate Reader (FLIPR Tetra) (Molecular Devices, CA).
Data were analyzed by nonlinear least squares curve fitting using GraphPad Prism 5.0 software (GraphPad Software, CA). Agonist stimulation in FLIPR assay was fitted to sigmoidal dose response curves using the equation Y=Bottom+(Top-Bottom)/(1+10^((Log EC50−X)*Hill Slope)), where X is the logarithm of concentration of compounds. Y is the fluorescent response, EC50 is the concentration of compound producing 50% of maximum response. Maximum responses (Emax) of compounds were calculated based on % of stimulation relative to the response of α-methyl-5HT (100%). EC50's are representative of two or three separate experiments performed in triplicates.

Compound	EC50 [nM]
Clc1ccc(OC2CCCCC2)c2cc3c(nc12)CCNCC3	< 50
Cc1c2c(nc3c(OC4CCCCC4)ccc(F)c13)CCNCC2	< 10
Cc1c2c(nc3c(C4CC4)ccc(Cl)c13)CCNCC2	< 15
Cc1c2c(nc3c(OC4CCCCCC4)ccc(F)c13)CCNCC2	< 10
Fc1cccc(Oc2ccc(Cl)c3nc4c(cc23)CCNCC4)c1	< 20
Fc1cc(C2CC2)c2nc3c(cc2c1Cl)CCNCC3	< 5
Cc1c2c(nc3c(Cl)ccc(OC4CCCCC4)c13)CCNCC2	< 5

Other lines, results leading:

EC50 [nM]	Compound
< 5	Fc1cc(C2CC2)c2nc3c(cc2c1F)CCNCC3
< 5	Cc1c2c(nc3c(C4CC4)c(F)cc(F)c13)CCNCC2
< 1	Clc1ccc(C2CC2)c2nc3c(cc12)CCNCC3
< 5	Fc1cc(F)c2cc3c(nc2c1C1CC1)CCNCC3
